pIC50: −log10 of the molar value.

The target of one assay is ATM (Homo sapiens (Human), UniProt Q13315). The assay is described as follows: biochemical. It counts as biochemical.
Sequence of ATM (Q13315 whole entry, looked up): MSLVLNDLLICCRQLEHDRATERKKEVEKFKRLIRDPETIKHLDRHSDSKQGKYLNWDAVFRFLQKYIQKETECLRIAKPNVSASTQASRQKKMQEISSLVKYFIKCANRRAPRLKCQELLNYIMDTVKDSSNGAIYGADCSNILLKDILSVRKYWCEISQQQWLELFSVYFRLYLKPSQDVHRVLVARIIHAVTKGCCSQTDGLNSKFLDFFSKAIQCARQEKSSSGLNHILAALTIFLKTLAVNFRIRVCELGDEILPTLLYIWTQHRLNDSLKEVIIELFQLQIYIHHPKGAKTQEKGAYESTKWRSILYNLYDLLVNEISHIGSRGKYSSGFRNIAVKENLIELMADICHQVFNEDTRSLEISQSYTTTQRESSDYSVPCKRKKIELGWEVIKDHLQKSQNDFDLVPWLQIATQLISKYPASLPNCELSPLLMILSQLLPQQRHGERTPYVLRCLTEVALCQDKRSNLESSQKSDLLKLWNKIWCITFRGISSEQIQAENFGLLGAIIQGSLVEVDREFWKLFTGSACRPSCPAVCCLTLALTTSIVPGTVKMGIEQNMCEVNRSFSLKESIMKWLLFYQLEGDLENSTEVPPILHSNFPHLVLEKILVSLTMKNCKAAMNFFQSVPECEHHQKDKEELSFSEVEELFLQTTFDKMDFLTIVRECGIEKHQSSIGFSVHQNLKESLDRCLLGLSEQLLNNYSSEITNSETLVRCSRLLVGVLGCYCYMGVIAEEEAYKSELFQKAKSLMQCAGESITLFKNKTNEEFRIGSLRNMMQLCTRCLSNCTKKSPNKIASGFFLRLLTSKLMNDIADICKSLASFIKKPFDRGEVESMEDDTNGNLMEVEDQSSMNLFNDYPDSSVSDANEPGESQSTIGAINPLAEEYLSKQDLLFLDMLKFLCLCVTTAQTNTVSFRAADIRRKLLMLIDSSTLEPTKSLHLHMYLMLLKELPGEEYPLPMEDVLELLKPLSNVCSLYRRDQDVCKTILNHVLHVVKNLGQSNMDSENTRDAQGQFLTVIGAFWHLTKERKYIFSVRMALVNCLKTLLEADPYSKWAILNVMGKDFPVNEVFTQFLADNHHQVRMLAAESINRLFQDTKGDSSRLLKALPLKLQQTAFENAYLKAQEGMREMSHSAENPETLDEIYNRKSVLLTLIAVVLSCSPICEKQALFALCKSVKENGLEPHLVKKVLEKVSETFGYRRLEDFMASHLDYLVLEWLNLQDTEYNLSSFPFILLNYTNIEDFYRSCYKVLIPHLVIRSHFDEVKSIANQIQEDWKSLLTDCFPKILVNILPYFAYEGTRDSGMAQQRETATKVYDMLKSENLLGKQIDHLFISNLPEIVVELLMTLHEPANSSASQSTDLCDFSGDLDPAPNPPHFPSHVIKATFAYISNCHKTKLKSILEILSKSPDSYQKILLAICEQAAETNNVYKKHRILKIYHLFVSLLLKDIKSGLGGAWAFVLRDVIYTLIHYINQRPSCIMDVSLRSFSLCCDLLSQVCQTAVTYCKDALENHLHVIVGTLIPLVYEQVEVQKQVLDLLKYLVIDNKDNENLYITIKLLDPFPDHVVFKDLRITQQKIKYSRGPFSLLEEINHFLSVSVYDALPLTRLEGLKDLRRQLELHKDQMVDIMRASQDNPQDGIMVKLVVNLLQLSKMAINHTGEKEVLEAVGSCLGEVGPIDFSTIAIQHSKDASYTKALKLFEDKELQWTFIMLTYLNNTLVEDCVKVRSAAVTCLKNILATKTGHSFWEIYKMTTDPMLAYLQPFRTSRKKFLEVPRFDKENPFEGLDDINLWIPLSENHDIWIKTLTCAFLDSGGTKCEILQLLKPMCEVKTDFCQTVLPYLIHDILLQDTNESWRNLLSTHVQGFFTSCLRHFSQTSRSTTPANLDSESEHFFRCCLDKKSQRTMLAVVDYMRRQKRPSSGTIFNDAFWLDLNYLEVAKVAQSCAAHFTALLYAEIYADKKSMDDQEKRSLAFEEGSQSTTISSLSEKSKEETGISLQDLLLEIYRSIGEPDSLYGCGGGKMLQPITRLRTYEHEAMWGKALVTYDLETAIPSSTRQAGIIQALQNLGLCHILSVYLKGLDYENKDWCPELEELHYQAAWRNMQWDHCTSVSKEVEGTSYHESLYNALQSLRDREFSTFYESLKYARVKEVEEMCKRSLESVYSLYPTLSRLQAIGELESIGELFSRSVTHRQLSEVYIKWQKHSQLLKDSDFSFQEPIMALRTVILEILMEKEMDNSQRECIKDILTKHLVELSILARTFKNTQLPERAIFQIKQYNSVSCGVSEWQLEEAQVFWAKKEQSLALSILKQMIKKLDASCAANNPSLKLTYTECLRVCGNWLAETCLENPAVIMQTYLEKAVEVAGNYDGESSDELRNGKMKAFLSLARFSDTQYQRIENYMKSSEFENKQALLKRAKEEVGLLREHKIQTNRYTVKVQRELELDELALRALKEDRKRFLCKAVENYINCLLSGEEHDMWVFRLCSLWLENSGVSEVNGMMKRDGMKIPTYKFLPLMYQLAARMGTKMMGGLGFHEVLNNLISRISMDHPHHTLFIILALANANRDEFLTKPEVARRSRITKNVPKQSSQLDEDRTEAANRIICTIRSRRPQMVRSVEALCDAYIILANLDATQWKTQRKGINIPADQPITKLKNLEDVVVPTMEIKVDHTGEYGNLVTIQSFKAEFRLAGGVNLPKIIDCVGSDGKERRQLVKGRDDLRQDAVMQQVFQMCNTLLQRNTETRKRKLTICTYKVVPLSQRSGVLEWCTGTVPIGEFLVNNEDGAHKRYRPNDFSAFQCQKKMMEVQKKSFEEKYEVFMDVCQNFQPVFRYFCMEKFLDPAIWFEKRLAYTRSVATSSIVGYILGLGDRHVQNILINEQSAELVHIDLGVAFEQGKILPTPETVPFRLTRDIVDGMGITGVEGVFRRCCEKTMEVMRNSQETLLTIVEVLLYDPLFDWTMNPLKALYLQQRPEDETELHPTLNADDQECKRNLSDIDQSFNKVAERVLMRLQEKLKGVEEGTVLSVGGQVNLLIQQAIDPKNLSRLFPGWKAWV
Conditions: not given
An excerpt: Assay a): ATM Biochemical Potency
Data was collected by Caliper.
The pIC50 is the negative decadic logarithm of the IC50, by convention in mol/L. The compound `Cn1c(=O)n(C2CCOCC2)c2c3cc(-c4ccc(COCCN5CCC6(CC6)C5)nc4)ccc3nnc21` [Example 94, 8-(6-((2-(5-azaspiro[2.4]heptan-5-yl)ethoxy)methyl)pyridin-3-yl)-3-methyl-1-(tetrahydro-2H-pyran-4-yl)-1H-imidazo[4,5-c]cinnolin-2(3H)-one] gave a pIC50 of 7.62.

Still in this assay, the particulars now being: read-out: ATM IC50.
As for `CC(C)n1c(=O)n(C)c2nnc3ccc(-c4ccc([C@@H](C)OCCN5CCCCC5)nc4)cc3c21` [Example 87, (R)-1-isopropyl-3-methyl-8-(6-(1-(2-(piperidin-1-yl)ethoxy)ethyl)pyridin-3-yl)-1H-imidazo[4,5-c]cinnolin-2(3H)-one], the pIC50 was 8.09.
On the same count and under the same terms, the result for `CO[C@H]1C[C@H](n2c(=O)n(C)c3nnc4ccc(-c5ccc([C@@H](C)OCCN6CCC7(CC7)C6)nc5)cc4c32)C1` [Example 161, 8-(6-((R)-1-(2-(5-azaspiro[2.4]heptan-5-yl)ethoxy)ethyl)pyridin-3-yl)-1-(trans-3-methoxycyclobutyl)-3-methyl-1H-imidazo[4,5-c]cinnolin-2(3H)-one] reads 8.47; that for `CC(C)n1c(=O)n(C)c2nnc3ccc(-c4ccc([C@@H](C)OCCN5CCC6(CCC6)C5)nc4)cc3c21` [Example 89, (R)-8-(6-(1-(2-(6-azaspiro[3.4]octan-6-yl)ethoxy)ethyl)pyridin-3-yl)-1-isopropyl-3-methyl-1H-imidazo[4,5-c]cinnolin-2(3H)-one], 8.80; that for `CC(C)n1c(=O)n(C)c2nnc3ccc(-c4ccc(COCCN5CCCC(F)C5)nc4)cc3c21` (centres unmarked) [Example 38, 8-(6-((2-(3-fluoropiperidin-1-yl)ethoxy)methyl)pyridin-3-yl)-1-isopropyl-3-methyl-1H-imidazo[4,5-c]cinnolin-2(3H)-one], 7.24.
On the same count and under the same terms, the same measure for `CC(C)n1c(=O)n(C)c2nnc3cc(F)c(-c4ccc([C@@H](C)OCCN5CCC(OC(F)(F)F)C5)nc4)cc3c21` (stereo partly drawn) [Example 141, 7-fluoro-1-isopropyl-3-methyl-8-(6-((1R)-1-(2-(3-(trifluoromethoxy)pyrrolidin-1-yl)ethoxy)ethyl)pyridin-3-yl)-1H-imidazo[4,5-c]cinnolin-2(3H)-one]: 8.20.
Regarding `COC[C@@H]1CCN(CCO[C@H](C)c2ccc(-c3ccc4nnc5c(c4c3)n(C(C)C)c(=O)n5C)cn2)C1` [Example 85, 1-isopropyl-8-(6-((R)-1-(2-((R)-3-(methoxymethyl)pyrrolidin-1-yl)ethoxy)ethyl)pyridin-3-yl)-3-methyl-1H-imidazo[4,5-c]cinnolin-2(3H)-one], the pIC50 is 8.47.
As for `CC(C)n1c(=O)n(C)c2nnc3ccc(-c4ccc([C@@H](C)OCCN5CCC(OC(F)(F)F)C5)nc4)cc3c21` (some centres unmarked) [Example 60], the pIC50 is 8.55.
Still for that read-out and setting: the same measure for `C[C@@H](OCCN1CCCCC1)c1ccc(-c2ccc3nnc4c(c3c2)n(C2CCOCC2)c(=O)n4C)cn1` [Example 120, (R)-3-methyl-8-(6-(1-(2-(piperidin-1-yl)ethoxy)ethyl)pyridin-3-yl)-1-(tetrahydro-2H-pyran-4-yl)-1H-imidazo[4,5-c]cinnolin-2(3H)-one]: 7.96; for `CC(C)n1c(=O)n(C)c2nnc3ccc(-c4ccc(COC5(CN6CC7CC7C6)CC5)nc4)cc3c21` (centres unmarked) [Example 23, 8-(6-((1-(3-azabicyclo[3.1.0]hexan-3-ylmethyl)cyclopropoxy)methyl)pyridin-3-yl)-1-isopropyl-3-methyl-1H-imidazo[4,5-c]cinnolin-2(3H)-one]: 6.38; for `CC(C)n1c(=O)n(C)c2nnc3ccc(-c4ccc(COCC(C)(C)N5CC6CC6C5)nc4)cc3c21` (centres unmarked) [Example 17, 8-(6-((2-(3-azabicyclo[3.1.0]hexan-3-yl)-2-methylpropoxy)methyl)pyridin-3-yl)-1-isopropyl-3-methyl-1H-imidazo[4,5-c]cinnolin-2(3H)-one]: 6.33.
Turning to `CC(C)n1c(=O)n(C)c2nnc3ccc(-c4ccc([C@@H](C)OCCN5CCC(F)(F)CC5)nc4)cc3c21` [Example 75, (R)-8-(6-(1-(2-(4,4-difluoropiperidin-1-yl)ethoxy)ethyl)pyridin-3-yl)-1-isopropyl-3-methyl-1H-imidazo[4,5-c]cinnolin-2(3H)-one], the pIC50 was 7.72.
`CC(C)n1c(=O)n(C)c2nnc3ccc(-c4ccc(COCCN5CCC(OC(F)(F)F)CC5)nc4)cc3c21` [Example 47, 1-isopropyl-3-methyl-8-(6-((2-(4-(trifluoromethoxy)piperidin-1-yl)ethoxy)methyl)pyridin-3-yl)-1H-imidazo[4,5-c]cinnolin-2(3H)-one]: the pIC50 is 8.66.
For `CC(C)n1c(=O)n(C)c2nnc3ccc(-c4ccc([C@@H](C)OCCN5CCC(C6COC6)CC5)nc4)cc3c21` [Example 83, (R)-1-isopropyl-3-methyl-8-(6-(1-(2-(4-(oxetan-3-yl)piperidin-1-yl)ethoxy)ethyl)pyridin-3-yl)-1H-imidazo[4,5-c]cinnolin-2(3H)-one], the pIC50 was 8.62.
As to `CC(C)n1c(=O)n(C)c2nnc3ccc(-c4ccc(COCCN5CC6C(C5)C6(F)F)nc4)cc3c21` (centres unmarked) [Example 48, 8-(6-((2-(6,6-difluoro-3-azabicyclo[3.1.0]hexan-3-yl)ethoxy)methyl)pyridin-3-yl)-1-isopropyl-3-methyl-1H-imidazo[4,5-c]cinnolin-2(3H)-one], the pIC50 is 7.77.
Still for that read-out and setting: the result for `CC(C)n1c(=O)n(C)c2nnc3ccc(-c4ccc(COCC5CCN(C)CC5)nc4)cc3c21` [Example 9, 1-isopropyl-3-methyl-8-(6-(((1-methylpiperidin-4-yl)methoxy)methyl)pyridin-3-yl)-1H-imidazo[4,5-c]cinnolin-2(3H)-one] reads 6.74; that for `CO[C@H]1C[C@H](n2c(=O)n(C)c3nnc4ccc(-c5ccc(COCCN6CC7CC7C6)nc5)cc4c32)C1` (stereo partly drawn) [Example 169, 8-(6-((2-(3-azabicyclo[3.1.0]hexan-3-yl)ethoxy)methyl)pyridin-3-yl)-1-(trans-3-methoxycyclobutyl)-3-methyl-1H-imidazo[4,5-c]cinnolin-2(3H)-one], 7.38; that for `C[C@@H](OCCN1CC[C@@H](OC2CC2)C1)c1ccc(-c2ccc3nnc4c(c3c2)n(C2CCOCC2)c(=O)n4C)cn1` [Example 122, 8-(6-((R)-1-(2-((R)-3-cyclopropoxypyrrolidin-1-yl)ethoxy)ethyl)pyridin-3-yl)-3-methyl-1-(tetrahydro-2H-pyran-4-yl)-1H-imidazo[4,5-c]cinnolin-2(3H)-one], 8.37.
As for `CC(C)n1c(=O)n(C)c2nnc3ccc(-c4ccc(COCCN5[C@H](C)CC[C@@H]5C)nc4)cc3c21` [Example 45, 8-(6-((2-((2R,5S)-2,5-dimethylpyrrolidin-1-yl)ethoxy)methyl)pyridin-3-yl)-1-isopropyl-3-methyl-1H-imidazo[4,5-c]cinnolin-2(3H)-one], the pIC50 is 7.08.
Regarding `CC(C)n1c(=O)n(C)c2nnc3ccc(-c4ccc(COC5CCN(C)C5)nc4)cc3c21` (centres unmarked) [Example 11, 1-isopropyl-3-methyl-8-(6-(((1-methylpyrrolidin-3-yl)oxy)methyl)pyridin-3-yl)-1H-imidazo[4,5-c]cinnolin-2(3H)-one], the pIC50 was 6.91.
Regarding `CO[C@H]1C[C@H](n2c(=O)n(C)c3nnc4ccc(-c5ccc(COCCN6CCC(F)CC6)nc5)cc4c32)C1` [Example 168, 8-(6-((2-(4-fluoropiperidin-1-yl)ethoxy)methyl)pyridin-3-yl)-1-(trans-3-methoxycyclobutyl)-3-methyl-1H-imidazo[4,5-c]cinnolin-2(3H)-one], the pIC50 was 7.32.
Still for that read-out and setting: the result for `CC(C)n1c(=O)n(C)c2nnc3ccc(-c4ccc(COCCN5CCCC5)nc4)cc3c21` [Example 4, 1-isopropyl-3-methyl-8-(6-((2-(pyrrolidin-1-yl)ethoxy)methyl)pyridin-3-yl)-1H-imidazo[4,5-c]cinnolin-2(3H)-one] reads 7.20.
The same measure, in the same setting: the result for `CC(C)n1c(=O)n(C)c2nnc3ccc(-c4ccc(COCC5(N6CC7CC7C6)CC5)nc4)cc3c21` (centres unmarked) [Example 18, 8-(6-(((1-(3-azabicyclo[3.1.0]hexan-3-yl)cyclopropyl)methoxy)methyl)pyridin-3-yl)-1-isopropyl-3-methyl-1H-imidazo[4,5-c]cinnolin-2(3H)-one] reads 6.42.
Regarding `CC(C)n1c(=O)n(C)c2nnc3ccc(-c4ccc(COCCN(C)C)nc4)cc3c21` [Example 2, 8-(6-((2-(dimethylamino)ethoxy)meth-yl)pyridin-3-yl)-1-isopropyl-3-methyl-1H-imidazo[4,5-c]cinnolin-2(3H)-one], the pIC50 is 7.28.
The same measure, in the same setting: the result for `CC(C)n1c(=O)n(C)c2nnc3ccc(-c4ccc(COCC5CCCN(C)C5)nc4)cc3c21` (centres unmarked) [Example 19, 1-isopropyl-3-methyl-8-(6-(((1-methylpiperidin-3-yl)methoxy)methyl)pyridin-3-yl)-1H-imidazo[4,5-c]cinnolin-2(3H)-one] reads 7.00; that for `COCCOCc1ccc(-c2ccc3nnc4c(c3c2)n(C(C)C)c(=O)n4C)cn1` [Example 6, 1-isopropyl-8-(6-((2-methoxyethoxy)methyl)py-ridin-3-yl)-3-methyl-1H-imidazo[4,5-c]cinnolin-2(3H)-one], 6.33; that for `CO[C@@H]1CCN(CCO[C@@H](C)c2ccc(-c3ccc4nnc5c(c4c3)n(C(C)C)c(=O)n5C)cn2)C1` [Example 64, 1-isopropyl-8-(6-((S)-1-(2-((R)-3-methoxypyrrolidin-1-yl)ethoxy)ethyl)pyridin-3-yl)-3-methyl-1H-imidazo[4,5-c]cinnolin-2(3H)-one], 7.72.
On the same count and under the same terms, the same measure for `CC(C)n1c(=O)n(C)c2nnc3ccc(-c4ccc([C@@H](C)OCCN5CC6(COC6)C5)nc4)cc3c21` [Example 81, (R)-8-(6-(1-(2-(2-oxa-6-azaspiro[3.3]heptan-6-yl)ethoxy)ethyl)pyridin-3-yl)-1-isopropyl-3-methyl-1H-imidazo[4,5-c]cinnolin-2(3H)-one]: 8.52; for `CO[C@H]1CCN(CCO[C@H](C)c2ccc(-c3cc4c(cc3F)nnc3c4n(C(C)C)c(=O)n3C)cn2)C1` [Example 138, 7-fluoro-1-isopropyl-8-(6-((R)-1-(2-((S)-3-methoxypyrrolidin-1-yl)ethoxy)ethyl)pyridin-3-yl)-3-methyl-1H-imidazo[4,5-c]cinnolin-2(3H)-one]: 7.85.

Values taken from patent US20240207263A1, “SELECTIVE MODULATORS OF ATAXIA TELA[…] (ATM) KINASE AND USES THEREOF” (priority 2021, published 2024).
